In patent publication US10745397B2, “1-Substituted 1,2,3,4-tetrahydro-1,7-naphthyridin-8-amine derivatives and their use as EP4 receptor antagonists” (TAKEDA PHARMACEUTICAL COMPANY LIMITED, priority 2015, dated 2020):

How the values were obtained:
human EP4 receptor = biological target: T1, human EP4 receptor (Homo sapiens, UniProt P35408); test: hEP4 radioligand binding assay ([3H] PGE2 competitive binding, membrane fractions); conditions: 300 nM compound; 1 nM [3H] PGE2
T1 construct: expressed in transfected cells; host or cells: FreeStyle293 (HEK293F) cells, transient transfection with pcDNA3.1(+), total membrane fraction
From the text: The full-length coding sequences for human EP1 (NM_000955), human EP2 (NM_000956), human EP3 (NM_198717) and human EP4 (NM_000958) were cloned into pcDNA3.1(+) vector (Life Technologies, CA, USA). In order to prepare overexpressed EP 1-4 membrane in Freestyle293 cells (Life Technologies, CA, USA), the pcDNA3.1(+) vector encoding a cDNA of the relevant gene was transiently transfected into FreeStyle293 cells using 293Fectin (Life Technologies, CA, USA) according to the manufacturer instruction manual. After 2 days, cultured cells were centrifuged (1,000×g, 10 min, 4° C.) and pellets homogenized by a probe sonicator (Sonics vibracell, Sonics and Materials Inc., USA; 31% Amp, 5 sec pulse, Imin interval, 4 cycles) in ice-cold 50 mM Tris-HCl buffer (pH 7.5 at 25° C.) containing 0.5 mM EDTA, 250 mM Sucrose and 10 mM MgCl2. Cell homogenates were centrifuged (890×g, 10 min, 4° C.), and the supernatant was recovered. Total membrane fractions were isolated by ultracentrifugation (140,000×g, 60 min, 4° C.). Pellets were re-suspended in the same buffer, and stored at −80° C. until use. The protein concentration in homogenate was determined with the BCA Protein Assay Kit (Pierce Biotechnology, Inc., IL, USA) according to the manufacturer protocol.
The binding affinity of the compounds was evaluated using a competitive radioligand binding assay which measured the specific binding of [3H] PGE2 to the human EP4 receptor. Briefly, varying concentrations of NCEs were incubated with cell membrane fractions generated HEK293F cells transiently transfected with human EP4 receptor as described above. Each reaction consisted of 10 μg membrane protein and NCE in 50 mM Tris-HCl, pH-6.0 by NaOH, 10 mM MgCl2 and 0.5 mM EDTA assay buffer. Radioligand, [3H] PGE2 (American Radiochemicals Inc. Specific Activity 180 Ci/mmol), at a final of 1 nM was added to each reaction where the final assay volume was 200 μL and concentration of DMSO was adjusted to 1%. Appropriate controls included total binding in the assay (vehicle control) and control for non-specific binding. Non-specific binding was evaluated by incubating the hEP4 protein with 10 μM unlabeled PGE2 under the same assay conditions as NCEs. The reaction was incubated at room temperature for 2 hours and terminated by harvesting the reaction contents to a PEI coated GF/C filter plate (PerkinElmer). The plate was washed four times with cold 50 mM Tris-HCl, pH-7.5 wash buffer and dried at 50° C. for 2 hours or at 37° C. overnight. [3H] PGE2 bound to the protein was quantified by the addition of 25 μL of Microscint PS (PerkinElmer) and plate was read on MicroBeta2 liquid Scintillation and luminescence counter (PerkinElmer). Data was analyzed using GraphPad Prism 5 (GraphPad Software Inc., San Diego, Calif.) where non-specific binding was normalized to 0% specific binding of [3]PGE2 and vehicle control (DMSO) was normalized to 100% specific binding of [3]PGE2. Binding affinity of NCEs, Ki, was generated using One site—Fit Ki equation in GraphPad Prism 5.

[1] = biological target: T2, hEP4 (C6 glioma cells overexpressing hEP4) (Homo sapiens, UniProt P35408); test: hEP4 cell based assay (cAMP), inhibition of PGE2 induced cAMP, HTRF; conditions: 1 μM compound, PGE2 at EC80
T2 construct: host or cells: C6 glioma cells overexpressing hEP4
Method: The functional assay for hEP4 activation and inhibition was carried out via the quantitative determination of agonist, PGE2, induced cAMP response using HTRF in a competitive immunoassay (Cisbio dynamic 2 kit). NCEs at varying concentrations were evaluated for inhibition of PGE2 induced increase in cAMP. Briefly, C6 glioma cells overexpressing hEP4 (Takeda) were cultured in DMEM (low glucose, pyruvate), 10% FBS (Gibco) and PenStep. The cells were harvested on the day of the assay, washed with HBSS+10 mM HEPES (pH 7.4)+0.1% BSA buffer and pre-incubated with varying concentrations of NCE. Each reaction contained 7000 cells and NCEs in HBSS+10 mM HEPES+0.1% BSA assay buffer along with PDE inhibitors IBMX and Ro 20-1724 (final concentration of each inhibitor […]). Following 15 min pre-incubation, the cells were treated with EC80 concentration of agonist PGE2 for 30 min to induce cAMP. Final volume of the assay was 6 μL and DMSO concentration was maintained at 1%. The reaction was terminated with the addition of cAMP labeled with the dye d2 in lysis buffer according to manufacturers' protocol. This was followed by the addition of the anti-cAMP antibody labeled with Cryptate according to the manufacturers' protocol. The reaction was incubated at room temperature in dark for 45 min and the plate was evaluated for fluorescence at 665 nm (FRET) and 620 nm (cryptate emission) on a Flexstation III microplate reader (Molecular Devices, Sunnyvale, Calif.) Ex max: 313 nm; Em1: 620 nm; Em2: 665 nm. Data was analyzed using GraphPad Prism 5 (GraphPad Software Inc., San Diego, Calif.) where cells treated with agonist (EC80) was normalized to 0% inhibition of hEP4 and cells treated with buffer (no agonist) was normalized to 100% inhibition of hEP4. IC50 of NCEs was generated using non-linear regression—Log(inhibitor) vs. response equation in GraphPad Prism 5.

T2 sequence (P35408 whole entry): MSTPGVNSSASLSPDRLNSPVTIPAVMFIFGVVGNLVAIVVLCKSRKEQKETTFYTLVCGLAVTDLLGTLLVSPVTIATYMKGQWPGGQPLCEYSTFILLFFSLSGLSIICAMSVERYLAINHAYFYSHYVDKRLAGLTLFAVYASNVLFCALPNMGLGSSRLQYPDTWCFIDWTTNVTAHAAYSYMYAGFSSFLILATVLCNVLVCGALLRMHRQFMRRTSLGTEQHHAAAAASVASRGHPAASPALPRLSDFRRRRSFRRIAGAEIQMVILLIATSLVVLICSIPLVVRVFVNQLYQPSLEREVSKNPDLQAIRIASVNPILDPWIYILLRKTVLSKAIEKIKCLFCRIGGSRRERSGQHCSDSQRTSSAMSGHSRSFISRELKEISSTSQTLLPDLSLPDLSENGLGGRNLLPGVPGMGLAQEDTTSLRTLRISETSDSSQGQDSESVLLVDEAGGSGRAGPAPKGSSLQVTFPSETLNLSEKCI
T1 sequence (P35408 whole entry): as above

SMILES	inhibition at 0.3 µM (human EP4 receptor)	inhibition at 1 µM [1]
C[C@H](Nc1nccc2c1N(Cc1cccc(F)c1)CCO2)c1ccc(C(=O)O)cc1 [Example B8, 4-[(1S)-1-[[4-[(3-fluorophenyl)methyl]-2,3-dihydropyrido[4,3-b][1,4]oxazin-5-yl]amino]ethyl]benzoic acid]	97%	100%
C[C@H](Nc1nccc2c1N(Cc1ccc(F)cc1)CCO2)c1ccc(C(=O)O)cc1 [Example B9, 4-[(1S)-1-[[4-[(4-fluorophenyl)methyl]-2,3-dihydropyrido[4,3-b][1,4]oxazin-5-yl]amino]ethyl]benzoic acid]	97%	100%
Cc1cccc(CN2CCOc3ccnc(N[C@@H](C)c4ccc(C(=O)O)cc4)c32)c1 [Example B10, 4-[(1S)-1-[[4-(m-tolylmethyl)-2,3-dihydropyrido[4,3-b][1,4]oxazin-5-yl]amino]ethyl]benzoic acid]	97%	100%
Cc1ccc(CN2CCOc3ccnc(N[C@@H](C)c4ccc(C(=O)O)cc4)c32)cc1 [Example B11, 4-[(1S)-1-[[4-(p-tolylmethyl)-2,3-dihydropyrido[4,3-b][1,4]oxazin-5-yl]amino]ethyl]benzoic acid]	95%	100%
COc1cccc(CN2CCOc3ccnc(N[C@@H](C)c4ccc(C(=O)O)cc4)c32)c1 [Example B12, 4-[(1S)-1-[[4-[(3-methoxyphenyl)methyl]-2,3-dihydropyrido[4,3-b][1,4]oxazin-5-yl]amino]ethyl]benzoic acid]	98%	100%
C[C@H](Nc1nccc2c1N(Cc1cc(F)cc(F)c1)CCO2)c1ccc(C(=O)O)cc1 [Example B13, 4-[(1S)-1-[[4-[(3,5-difluorophenyl)methyl]-2,3-dihydropyrido[4,3-b][1,4]oxazin-5-yl]amino]ethyl]benzoic acid]	92%	100%
C[C@H](Nc1nccc2c1N(Cc1cccc(C(F)(F)F)c1)CCO2)c1ccc(C(=O)O)cc1 [Example B14, 4-[(1S)-1-[[4-[[3-(trifluoromethyl)phenyl]methyl]-2,3-dihydropyrido[4,3-b][1,4]oxazin-5-yl]amino]ethyl]benzoic acid]	93%	100%
COc1ccc(CN2CCOc3ccnc(N[C@@H](C)c4ccc(C(=O)O)cc4)c32)cc1 [Example B15, 4-[(1S)-1-[[4-[(4-methoxyphenyl)methyl]-2,3-dihydropyrido[4,3-b][1,4]oxazin-5-yl]amino]ethyl]benzoic acid]	98%	99%
O=C(O)c1ccc(C2(Nc3nccc4c3N(Cc3cccc(F)c3)CCO4)CC2)cc1 [Example B16, 4-[1-[[4-[(3-fluorophenyl)methyl]-2,3-dihydropyrido[4,3-b][1,4]oxazin-5-yl]amino]cyclopropyl]benzoic acid]	93%	88%
O=C(O)c1ccc(C2(Nc3nccc4c3N(Cc3cc(F)cc(F)c3)CCO4)CC2)cc1 [Example B17, 4-[1-[[4-[(3,5-difluorophenyl)methyl]-2,3-dihydropyrido[4,3-b][1,4]oxazin-5-yl]amino]cyclopropyl]benzoic acid]	96%	86%

The remaining lines, values ahead:

inhibition at 0.3 µM (human EP4 receptor)	inhibition at 1 µM [1]	SMILES
93%	79%	O=C(O)c1ccc(C2(Nc3nccc4c3N(Cc3ccc(F)cc3)CCO4)CC2)cc1 [Example B18, 4-[1-[[4-[(4-fluorophenyl)methyl]-2,3-dihydropyrido[4,3-b][1,4]oxazin-5-yl]amino]cyclopropyl]benzoic acid]
92%	81%	O=C(O)c1ccc(C2(Nc3nccc4c3N(Cc3ccc(Cl)cc3)CCO4)CC2)cc1 [Example B19, 4-[1-[[4-[(4-chlorophenyl)methyl]-2,3-dihydropyrido[4,3-b][1,4]oxazin-5-yl]amino]cyclopropyl]benzoic acid]
92%	92%	O=C(O)c1ccc(C2(Nc3nccc4c3N(Cc3ccc(C(F)(F)F)cc3)CCO4)CC2)cc1 [Example B20, 4-[1-[[4-[[4-(trifluoromethyl)phenyl]methyl]-2,3-dihydropyrido[4,3-b][1,4]oxazin-5-yl]amino]cyclopropyl]benzoic acid]
87%	87%	COc1ccc(CN2CCOc3ccnc(NC4(c5ccc(C(=O)O)cc5)CC4)c32)cc1 [Example B21, 4-[1-[[4-[(4-methoxyphenyl)methyl]-2,3-dihydropyrido[4,3-b][1,4]oxazin-5-yl]amino]cyclopropyl]benzoic acid]
80%	90%	O=C(O)c1ccc(C2(Nc3nccc4c3N(Cc3ccccc3)CCO4)CC2)cc1 [Example B22, 4-[1-[(4-benzyl-2,3-dihydropyrido[4,3-b][1,4]oxazin-5-yl)amino]cyclopropyl]benzoic acid]
100%	74%	COc1cccc(CN2CCOc3ccnc(NC4(c5ccc(C(=O)O)cc5)CC4)c32)c1 [Example B23, 4-[1-[[4-[(3-methoxyphenyl)methyl]-2,3-dihydropyrido[4,3-b][1,4]oxazin-5-yl]amino]cyclopropyl]benzoic acid]
100%	71%	O=C(O)c1ccc(C2(Nc3nccc4c3N(Cc3cccc(Cl)c3)CCO4)CC2)cc1 [Example B24, 4-[1-[[4-[(3-chlorophenyl)methyl]-2,3-dihydropyrido[4,3-b][1,4]oxazin-5-yl]amino]cyclopropyl]benzoic acid acid]
98%	79%	Cc1cccc(CN2CCOc3ccnc(NC4(c5ccc(C(=O)O)cc5)CC4)c32)c1 [Example B25, 4-[1-[[4-(m-tolylmethyl)-2,3-dihydropyrido[4,3-b][1,4]oxazin-5-yl]amino]cyclopropyl]benzoic acid]
93%	87%	Cc1ccc(CN2CCOc3ccnc(NC4(c5ccc(C(=O)O)cc5)CC4)c32)cc1 [Example B26, 4-[1-[[4-(p-tolylmethyl)-2,3-dihydropyrido[4,3-b][1,4]oxazin-5-yl]amino]cyclopropyl]benzoic acid]
100%	96%	C[C@H](Nc1nccc2c1N(Cc1ccc3ccccc3c1)CCO2)c1ccc(C(=O)O)cc1 [Example B29, 4-[(1S)-1-[[4-(2-naphthylmethyl)-2,3-dihydropyrido[4,3-b][1,4]oxazin-5-yl]amino]ethyl]benzoic acid]
